Source: the supplement of paper PMC11061612

What was measured:
Assay in all cases: Bliss excess, mean over the matrix (fraction); higher = more synergy
[1] = system: 697 (B-Lymphoblastic Leukemia)
How it was run: (§1)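 Cell lines grown in DMEM/F12 or RPMI with 10% FBS were plated in 1536-well plates and held 24 hours at 37°C, 5% CO2 before 72 hours of exposure to two-drug dose matrices, with DMSO typically at 0.2%. CellTiter-Glo 2.0 luminescence gave viability, which was converted to inhibition. Vehicle wells were set to 0 and blank wells to 1. Combination Emax is the second-highest inhibition in the matrix, and Bliss excess is the observed combination effect minus the expected EA + EB − EA·EB, where EA and EB are the single-agent effects.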

[2] = system: C3A (Hepatocellular Carcinoma)
How it was run: as §1

[3] = system: DB (B-Cell Non-Hodgkin's Lymphoma)
How it was run: as §1

[4] = system: DOV13 (Ovarian Carcinoma)
How it was run: as §1

DSH1 (Bladder Carcinoma) = system: DSH1 (Bladder Carcinoma)
How it was run: as §1

[5] = system: EM-2 (Chronic Myelogenous Leukemia)
How it was run: as §1

ES7 (Ewing's Sarcoma) = system: ES7 (Ewing's Sarcoma)
How it was run: as §1

[6] = system: G-292-Clone-A141B1 (Osteosarcoma)
How it was run: as §1

[7] = system: HPAC (Pancreatic Carcinoma)
How it was run: as §1

[8] = system: KARPAS-1106P (B-Cell Non-Hodgkin's Lymphoma)
How it was run: as §1

[9] = system: KM-H2 (Hodgkin's Lymphoma)
How it was run: as §1

[10] = system: MFH-ino (Other Solid Carcinomas)
How it was run: as §1

[11] = system: NCI-H1299 (Non-Small Cell Lung Carcinoma)
How it was run: as §1

[12] = system: NCI-H1781 (Lung Adenocarcinoma)
How it was run: as §1

NCI-H2595 (Mesothelioma) = system: NCI-H2595 (Mesothelioma)
How it was run: as §1

[13] = system: OCI-AML2 (Acute Myeloid Leukemia)
How it was run: as §1

RH-1 (Ewing's Sarcoma) = system: RH-1 (Ewing's Sarcoma)
How it was run: as §1

SK-N-FI (Neuroblastoma) = system: SK-N-FI (Neuroblastoma)
How it was run: as §1

SN12C (Kidney Carcinoma) = system: SN12C (Kidney Carcinoma)
How it was run: as §1

[14] = system: SW780 (Bladder Carcinoma)
How it was run: as §1

Row | Structure (SMILES) | Bliss excess [1] | Bliss excess [2] | Bliss excess [3] | Bliss excess [4] | Bliss excess (DSH1 (Bladder Carcinoma)) | Bliss excess [5] | Bliss excess (ES7 (Ewing's Sarcoma)) | Bliss excess [6] | Bliss excess [7] | Bliss excess [8] | Bliss excess [9] | Bliss excess [10] | Bliss excess [11] | Bliss excess [12] | Bliss excess (NCI-H2595 (Mesothelioma)) | Bliss excess [13] | Bliss excess (RH-1 (Ewing's Sarcoma)) | Bliss excess (SK-N-FI (Neuroblastoma)) | Bliss excess (SN12C (Kidney Carcinoma)) | Bliss excess [14]
1 | COc1nnc2ccc(N3CCC(c4ccc(OCCN5CCN(C)C(=O)[C@H]5C)cc4)CC3)nn12 [AZD5153] + CCN(CCO)CCCOc1ccc2c(Nc3cc(CC(=O)Nc4cccc(F)c4)[nH]n3)ncnc2c1 [AZD2811] (first compound max 1 µM, 7x7, partner max 1 µM) | -0.0118 | -0.0567 | -0.0585 | -0.0908 | -0.0802 | -0.001 | -0.0372 | -0.0263 | -0.0283 | 0.019 | 0 | -0.0811 | -0.0578 | -0.129 | -0.0227 | 0.0016 | 0.0025 | -0.0579 | 0.0129 | -0.0766
2 | COc1nnc2ccc(N3CCC(c4ccc(OCCN5CCN(C)C(=O)[C@H]5C)cc4)CC3)nn12 [AZD5153] + C[C@@H]1COCCN1C2=NC(=NC(=C2)C3(CC3)[S@](=N)(=O)C)C4=C5C=CNC5=NC=C4 [AZD6738] (first compound max 1 µM, 7x7, partner max 10 µM) | -0.0106 | 0.0348 | 0.0071 | -0.0623 | 0.0321 | 0.039 | -0.0245 | 0.0166 | 0.0368 | -0.0455 | -0.008 | -0.0801 | -0.0088 | 0.0033 | 0.0346 | -0.0143 | 0.0071 | 0.0549 | -0.0091 | -0.0052
3 | COc1nnc2ccc(N3CCC(c4ccc(OCCN5CCN(C)C(=O)[C@H]5C)cc4)CC3)nn12 [AZD5153] + Cc1c2c(nn1C)CSCc1cc(n(C)n1)CSc1cc(c3ccccc3c1)OCCCc1c(C(=O)O)n(C)c3c-2c(Cl)ccc13 [AZD5991] (first compound max 1 µM, 7x7, partner max 1 µM) | -0.0558 | -0.0262 | 0.0507 | -0.108 | 0.0112 | 0.0004 | 0.0052 | -0.032 | -0.0105 | 0.0005 | -0.0495 | -0.0333 | -0.0313 | 0.0028 | 0.015 | -0.0185 | 0.0034 | -0.0656 | -0.0285 | -0.0187
4 | COc1nnc2ccc(N3CCC(c4ccc(OCCN5CCN(C)C(=O)[C@H]5C)cc4)CC3)nn12 [AZD5153] + Cn1cnc2c(F)c(Nc3ccc(Br)cc3Cl)c(C(=O)NOCCO)cc21 [Selumetinib] (first compound max 1 µM, 7x7, partner max 10 µM) | -0.0389 | -0.0272 | 0.0093 | -0.0263 | -0.0458 | 0.0468 | -0.0502 | -0.0388 | 0.0161 | 0.013 | -0.0839 | -0.0031 | -0.0243 | -0.0085 | -0.0604 | 0.0311 | -0.0267 | -0.0386 | 0.0158 | -0.058
5 | Cc1c2c(nn1C)CSCc1cc(n(C)n1)CSc1cc(c3ccccc3c1)OCCCc1c(C(=O)O)n(C)c3c-2c(Cl)ccc13 [AZD5991] + C1CN(CCC1(C(=O)N[C@@H](CCO)C2=CC=C(C=C2)Cl)N)C3=NC=NC4=C3C=CN4 [Capivasertib] (first compound max 1 µM, 7x7, partner max 3 µM) | -0.034 | -0.0318 | 0.0079 | 0.0055 | 0.001 | -0.0149 | 0.112 | -0.0115 | -0.0239 | 0.0188 | -0.0052 | -0.0372 | -0.0174 | 0.0079 | 0.0093 | 0.0385 | 0.0157 | 0.0211 | -0.0239 | -0.011
6 | Cc1c2c(nn1C)CSCc1cc(n(C)n1)CSc1cc(c3ccccc3c1)OCCCc1c(C(=O)O)n(C)c3c-2c(Cl)ccc13 [AZD5991] + C=CCn1c(=O)c2cnc(Nc3ccc(N4CCN(C)CC4)cc3)nc2n1-c1cccc(C(C)(C)O)n1 [AZD1775] (first compound max 1 µM, partner max 1 µM) | -0.0264 | 0.0084 | -0.0165 | -0.038 | -0.0115 | -0.0674 | 0.0155 | -0.0178 | -0.0132 | -0.011 | -0.0181 | 0.0604 | -0.0048 | -0.054 | -0.0127 | -0.0366 | -0.0575 | -0.0478 | 0.0306 | 0.0046
7 | Cc1c2c(nn1C)CSCc1cc(n(C)n1)CSc1cc(c3ccccc3c1)OCCCc1c(C(=O)O)n(C)c3c-2c(Cl)ccc13 [AZD5991] + CC1(C)CCC(CN2CCN(c3ccc(C(=O)NS(=O)(=O)c4ccc(NCC5CCOCC5)c([N+](=O)[O-])c4)c(Oc4cnc5[nH]ccc5c4)c3)CC2)=C(c2ccc(Cl)cc2)C1 [Venetoclax] (first compound max 1 µM, 7x7, partner max 1 µM) | -0.0564 | -0.0519 | 0.185 | 0.0007 | 0.0397 | 0.248 | 0.102 | -0.0292 | -0.0498 | -0.0146 | -0.0094 | -0.0512 | -0.031 | -0.0597 | -0.0384 | 0.143 | 0.0491 | 0.034 | -0.0193 | 0.0215
8 | Cc1c2c(nn1C)CSCc1cc(n(C)n1)CSc1cc(c3ccccc3c1)OCCCc1c(C(=O)O)n(C)c3c-2c(Cl)ccc13 [AZD5991] + CCN(CCO)CCCOc1ccc2c(Nc3cc(CC(=O)Nc4cccc(F)c4)[nH]n3)ncnc2c1 [AZD2811] (first compound max 1 µM, 7x7, partner max 1 µM) | -0.0039 | 0.0494 | 0.0711 | 0.0169 | 0.0492 | -0.0729 | 0.0267 | -0.021 | 0.0104 | 0.0744 | 0.0654 | 0.0053 | -0.0012 | -0.0155 | 0.0141 | 0.126 | -0.0457 | 0.0054 | 0.0191 | 0.0188
9 | Cc1c2c(nn1C)CSCc1cc(n(C)n1)CSc1cc(c3ccccc3c1)OCCCc1c(C(=O)O)n(C)c3c-2c(Cl)ccc13 [AZD5991] + CN(C)CCCOc1ccc(-c2ccc3ncc4c(c3c2)n(C2CCOCC2)c(=O)n4C)cn1 [AZD0156] (first compound max 1 µM, 7x7, partner max 1 µM) | -0.0468 | -0.0266 | -0.0093 | -0.0235 | -0.013 | -0.0436 | 0.0036 | -0.025 | 0.0384 | -0.0352 | -0.0139 | -0.0286 | 0.0163 | -0.0155 | -0.0082 | -0.0647 | 0.0081 | -0.0036 | -0.0161 | -0.0103
10 | Cc1c2c(nn1C)CSCc1cc(n(C)n1)CSc1cc(c3ccccc3c1)OCCCc1c(C(=O)O)n(C)c3c-2c(Cl)ccc13 [AZD5991] + C[C@@H]1COCCN1C2=NC(=NC(=C2)C3(CC3)[S@](=N)(=O)C)C4=C5C=CNC5=NC=C4 [AZD6738] (first compound max 1 µM, 7x7, partner max 10 µM) | 0.0058 | 0.0412 | 0.0042 | 0.0005 | 0.0241 | 0.0299 | 0.0521 | -0.001 | 0.0409 | 0.0182 | 0.0236 | 0.0319 | 0.0159 | 0.0103 | -0.0124 | 0.0168 | -0.0221 | -0.0554 | -0.0144 | 0.0324
11 | Cc1c2c(nn1C)CSCc1cc(n(C)n1)CSc1cc(c3ccccc3c1)OCCCc1c(C(=O)O)n(C)c3c-2c(Cl)ccc13 [AZD5991] + Cc1cc2ncnn2cc1Nc1ncc2c(n1)n(C1CCOCC1)c(=O)n2C [AZD7648] (first compound max 1 µM, 7x7, partner max 10 µM) | -0.0603 | -0.0312 | -0.0087 | -0.0025 | -0.095 | 0.0206 | -0.028 | -0.0274 | -0.0679 | -0.0016 | 0.0203 | -0.018 | -0.0436 | -0.105 | 0.0034 | 0.019 | -0.0036 | -0.0289 | -0.0335 | -0.0193
12 | Cc1c2c(nn1C)CSCc1cc(n(C)n1)CSc1cc(c3ccccc3c1)OCCCc1c(C(=O)O)n(C)c3c-2c(Cl)ccc13 [AZD5991] + Cn1cnc2c(F)c(Nc3ccc(Br)cc3Cl)c(C(=O)NOCCO)cc21 [Selumetinib] (first compound max 1 µM, 7x7, partner max 3 µM) | -0.0462 | -0.0476 | 0.0063 | 0.0216 | -0.0881 | -0.0053 | 0.0375 | -0.0558 | 0.005 | 0.0497 | 0.0029 | -0.0311 | -0.0039 | -0.0165 | 0.0101 | 0.0107 | -0.0127 | -0.0042 | -0.0425 | 0.0631
13 | C[C@@H]1COCCN1c1cc(C2([S@](C)(=N)=O)CC2)nc(-c2ccnc3[nH]ccc23)n1 [AZD6738] + O=C(c1cc(Cc2n[nH]c(=O)c3ccccc23)ccc1F)N1CCN(C(=O)C2CC2)CC1 [Olaparib] (first compound max 10 µM, 7x7, partner max 10 µM) | 0.0073 | -0.0039 | -0.0359 | 0.0127 | -0.0205 | 0.0026 | 0.0469 | 0.0195 | 0.0125 | -0.0236 | 0.024 | 0.0189 | -0.0365 | -0.0218 | -0.0073 | 0.0013 | 0.0873 | -0.0581 | -0.0284 | -0.0047
14 | Cc1cc2ncnn2cc1Nc1ncc2c(n1)n(C1CCOCC1)c(=O)n2C [AZD7648] + C=CCn1c(=O)c2cnc(Nc3ccc(N4CCN(C)CC4)cc3)nc2n1-c1cccc(C(C)(C)O)n1 [AZD1775] (first compound max 10 µM, partner max 1 µM) | 0 | 0.0187 | -0.0984 | -0.0795 | 0.0281 | -0.015 | -0.0044 | -0.0124 | 0.0067 | -0.0202 | -0.0201 | 0.0118 | -0.0314 | -0.0222 | -0.0242 | -0.0039 | 0.016 | -0.0415 | -0.0188 | 0.0146
